Test [1] concerns the target T1, androgen receptor (Homo sapiens, UniProt P10275).
T1 sequence (P10275 1-920 T878A): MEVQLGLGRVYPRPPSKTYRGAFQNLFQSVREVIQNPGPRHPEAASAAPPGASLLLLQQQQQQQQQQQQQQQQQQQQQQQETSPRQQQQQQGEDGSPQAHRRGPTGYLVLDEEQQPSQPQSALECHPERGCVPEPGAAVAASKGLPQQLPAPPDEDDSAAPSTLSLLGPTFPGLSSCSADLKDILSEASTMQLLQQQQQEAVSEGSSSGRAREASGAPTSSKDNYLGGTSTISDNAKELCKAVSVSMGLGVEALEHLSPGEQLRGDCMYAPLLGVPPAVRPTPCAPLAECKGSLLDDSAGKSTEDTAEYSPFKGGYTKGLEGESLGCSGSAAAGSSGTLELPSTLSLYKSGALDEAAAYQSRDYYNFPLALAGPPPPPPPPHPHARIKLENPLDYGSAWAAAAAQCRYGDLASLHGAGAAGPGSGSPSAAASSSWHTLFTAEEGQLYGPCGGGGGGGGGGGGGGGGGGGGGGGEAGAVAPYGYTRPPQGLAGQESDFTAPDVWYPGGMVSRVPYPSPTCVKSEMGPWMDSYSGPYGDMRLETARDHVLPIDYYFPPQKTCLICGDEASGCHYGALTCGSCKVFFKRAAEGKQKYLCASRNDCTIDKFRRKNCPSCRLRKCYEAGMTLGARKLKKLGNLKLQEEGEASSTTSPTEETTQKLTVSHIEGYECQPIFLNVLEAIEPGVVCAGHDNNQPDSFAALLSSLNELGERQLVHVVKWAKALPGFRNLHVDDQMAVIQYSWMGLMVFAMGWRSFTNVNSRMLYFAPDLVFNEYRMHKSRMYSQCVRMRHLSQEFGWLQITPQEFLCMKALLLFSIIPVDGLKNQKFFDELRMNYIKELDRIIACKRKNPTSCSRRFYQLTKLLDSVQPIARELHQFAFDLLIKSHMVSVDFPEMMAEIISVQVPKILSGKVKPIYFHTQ
Nature of the test: Assay for binding affinity to androgen receptor ([3H]methyltrienolone radioligand, cell cytosol). The settings on record: 1 nM [3H]methyltrienolone, 24 hours at 4° C., Table 5. The method in brief:
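Competition binding in cell cytosol ([…]) with 1 nM [3H]methyltrienolone, 24 hours at 4° C, in pH 7.4 Hepes-Tris buffer with 5 μM triamcinolone acetonide; nonspecific binding defined by 1 μM testosterone. Filtration and scintillation counting; values reported as % inhibition of specific binding.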

Test [2] addresses T2, BRD4-BD2 (Homo sapiens, UniProt O60885).
T2 construct: made in house; host or cells: T7 phage grown in an E. coli host derived from BL21
Put plainly: bromoKdELECT assay for binding affinity to BRD4-BD2. The conditions noted are these: Table 7. The protocol: Compounds were tested using a bromoKdELECT assay. T7 phage strains displaying bromodomains were grown in parallel in 24-well blocks in an E. coli host derived from the BL21 strain. E. coli were grown to log-phase and infected with T7 phage from a frozen stock (multiplicity of infection=0.4) and incubated with shaking at 32° C. until lysis (90-150 minutes). The lysates were centrifuged (5,000×g) and filtered (0.2 μm) to remove cell debris. Streptavidin-coated magnetic beads were treated with biotinylated small molecule or acetylated peptide ligands for 30 minutes at room temperature to generate affinity resins for bromodomain assays. The liganded beads were blocked with excess biotin and washed with blocking buffer (SeaBlock (Pierce), 1% BSA, 0.05% Tween 20, 1 mM DTT) to remove unbound ligand and to reduce nonspecific phage binding. Binding reactions were assembled by combining bromodomains, liganded affinity beads, and test compounds in 1× binding buffer (17% SeaBlock, 0.33×PBS, 0.04% Tween 20, 0.02% BSA, 0.004% Sodium azide, 7.4 mM DTT). Test compounds were prepared as 1000× stocks in 100% DMSO. Kds were determined using an 11-point 3-fold compound dilution series with one DMSO control point. All compounds for Kd measurements are distributed by acoustic transfer (non-contact dispensing) in 100% DMSO. The compounds were then diluted directly into the assays such that the final concentration of DMSO was 0.09%. All reactions performed in polypropylene 384-well plates. Each was a final volume of 0.02 ml. The assay plates were incubated at room temperature with shaking for 1 hour and the affinity beads were washed with wash buffer (1×PBS, 0.05% Tween 20). The beads were then resuspended in elution buffer (1×PBS, 0.05% Tween 20, 2 μM non-biotinylated affinity ligand) and incubated at room temperature with shaking for 30 minutes. The bromodomain concentration in the eluates was measured by qPCR.

The structures appear in SMILES notation.

In the case of `Cc1sc2c(c1C)C(c1ccc(Cl)cc1)=N[C@@H](CC(=O)NCCOCCOCCOC1CCN(c3ncc(C(=O)N[C@H]4C(C)(C)[C@H](Oc5ccc(C#N)c(Cl)c5)C4(C)C)cn3)CC1)c1nnc(C)n1-2` [Compound I-7], the dissociation constant (Kd) in test [1] and in test [2] was below 50 nM in each case.
Regarding `Cc1sc2c(c1C)C(c1ccc(OCCOC3CCN(c4ncc(C(=O)N[C@H]5C(C)(C)[C@H](Oc6ccc(C#N)c(Cl)c6)C5(C)C)cn4)CC3)cc1)=N[C@@H](CC(=O)OC(C)(C)C)c1nnc(C)n1-2` [Compound I-235, tert-butyl 2-((S)-4-(4-(2-((1-(5-(((1r,3r)-3-(3-chloro-4-cyanophenoxy)-2,2,4,4-tetramethylcyclobutyl)carbamoyl)pyrimidin-2-yl)piperidin-4-yl)oxy)ethoxy)phenyl)-2,3,9-trimethyl-6H-thieno[3,2-f][1,2,4]triazolo[4,3-a][1,4]diazepin-6-yl)acetate], the Kd (usually the free concentration of one partner at which half of the binding sites on the other are occupied at equilibrium, for simple one-to-one binding) in test [2] is above 2500 nM.
Still for that read-out and setting: as for `CCNC(=O)C[C@@H]1N=C(c2ccc(OCCOC3CCN(c4ncc(C(=O)N[C@H]5C(C)(C)[C@H](Oc6ccc(C#N)c(Cl)c6)C5(C)C)cn4)CC3)c(F)c2F)c2c(sc(C)c2C)-n2c(C)nnc21` [Compound I-73], the figure is 50 to 500 nM; as for `CCN(C)C(=O)C[C@@H]1N=C(c2ccc(OCCOC3CCN(c4ncc(C(=O)N[C@H]5C(C)(C)[C@H](Oc6ccc(C#N)c(Cl)c6)C5(C)C)cn4)CC3)cc2)c2c(sc(C)c2C)-n2c(C)nnc21` [Compound I-66], 500 to 2500 nM.
On to `CCNC(=O)C[C@@H]1N=C(c2ccc(N3CCC(OC4CCN(c5ncc(C(=O)N[C@H]6C(C)(C)[C@H](Oc7ccc(C#N)c(Cl)c7)C6(C)C)cn5)CC4)CC3)cc2)c2c(sc(C)c2C)-n2c(C)nnc21` [Compound I-114], for which the values for the Kd in test [1] and in test [2] were below 50 nM and 500 to 2500 nM, respectively.
On to `CCNC(=O)C[C@@H]1N=C(c2ccc(CCCC3CCN(c4ncc(C(=O)N[C@H]5C(C)(C)[C@H](Oc6ccc(C#N)c(Cl)c6)C5(C)C)cn4)CC3)cc2)c2c(sc(C)c2C)-n2c(C)nnc21` [Compound I-95], for which the Kd in test [2] is above 2500 nM.
On the same count and under the same terms, next, `CCNC(=O)C[C@@H]1N=C(c2ccc(N(C)CC3CN(c4ncc(C(=O)N[C@H]5C(C)(C)[C@H](Oc6ccc(C#N)c(Cl)c6)C5(C)C)cn4)C3)cc2)c2c(sc(C)c2C)-n2c(C)nnc21` [Compound I-107]: 50 to 500 nM.
`CCNC(=O)C[C@@H]1N=C(c2ccc(OCC3CN(c4ncc(C(=O)N[C@H]5C(C)(C)[C@H](Oc6ccc(C#N)c(Cl)c6)C5(C)C)cn4)C3)cc2)c2c(sc(C)c2C)-n2c(C)nnc21` [Compound I-71]: the Kd in test [1] and in test [2] was below 50 nM in each case.
In the case of `CCNC(=O)C[C@@H]1N=C(c2ccc(N3CCN(CC4CCN(c5ncc(C(=O)N[C@H]6C(C)(C)[C@H](Oc7ccc(C#N)c(Cl)c7)C6(C)C)cn5)CC4)CC3)cc2)c2c(sc(C)c2C)-n2c(C)nnc21` [Compound I-105, N-[3-(3-chloro-4-cyano-phenoxy)-2,2,4,4-tetramethyl-cyclobutyl]-2-[4-[[4-[4-[(9S)-9-[2-(ethylamino)-2-oxo-ethyl]-4,5,13-trimethyl-3-thia-1,8,11,12-tetrazatricyclo[8.3.0.02,6]trideca-2(6),4,7,10,12-pentaen-7-yl]phenyl]piperazin-1-yl]methyl]-1-piperidyl]pyrimidine-5-carboxamide], the equilibrium dissociation constant (Kd) in test [1] was below 50 nM; in test [2], 50 to 500 nM.
`CCNC(=O)C[C@@H]1N=C(c2ccc(N3CCC(N(C)C4CCN(c5ncc(C(=O)N[C@H]6C(C)(C)[C@H](Oc7ccc(C#N)c(Cl)c7)C6(C)C)cn5)CC4)CC3)cc2)c2c(sc(C)c2C)-n2c(C)nnc21` [Compound I-113] displayed a Kd in test [2] of 50 to 500 nM.
The same measure, in the same setting: next, `CCNC(=O)C[C@@H]1N=C(c2ccc(N(C)C3CN(CC4CCN(c5ncc(C(=O)N[C@H]6C(C)(C)[C@H](Oc7ccc(C#N)c(Cl)c7)C6(C)C)cn5)CC4)C3)cc2)c2c(sc(C)c2C)-n2c(C)nnc21` [Compound I-119]: 50 to 500 nM; `COCC[C@@H]1N=C(c2ccc(CCCOC3CCN(c4ncc(C(=O)N[C@H]5C(C)(C)[C@H](Oc6ccc(C#N)c(Cl)c6)C5(C)C)cn4)CC3)cc2)c2c(sc(C)c2C)-n2c(C)nnc21` [Compound I-227, N-[3-(3-chloro-4-cyano-phenoxy)-2,2,4,4-tetramethyl-cyclobutyl]-2-[4-[3-[4-[(9S)-9-(2-methoxyethyl)-4,5,13-trimethyl-3-thia-1,8,11,12-tetrazatricyclo[8.3.0.02,6]trideca-2(6),4,7,10,12-pentaen-7-yl]phenyl]propoxy]-1-piperidyl]pyrimidine-5-carboxamide]: above 2500 nM; `Cc1sc2c(c1C)C(c1ccc(CCCOC3CCN(c4ncc(C(=O)N[C@H]5C(C)(C)[C@H](Oc6ccc(C#N)c(Cl)c6)C5(C)C)cn4)CC3)cc1)=N[C@@H](Cc1ncco1)c1nnc(C)n1-2` [Compound I-131, N-[3-(3-chloro-4-cyano-phenoxy)-2,2,4,4-tetramethyl-cyclobutyl]-2-[4-[3-[4-[(9S)-4,5,13-trimethyl-9-(oxazol-2-ylmethyl)-3-thia-1,8,11,12-tetrazatricyclo[8.3.0.02,6]trideca-2(6),4,7,10,12-pentaen-7-yl]phenyl]propoxy]-1-piperidyl]pyrimidine-5-carboxamide]: above 2500 nM.
